{"source": "patent US20190328719A1", "about": "“METHODS OF TREATING DEVELOPMENTAL DISORDERS AND/OR SEIZURE DISORDERS WITH FLUPIRTINE” (Ovid Therapeutics Inc., priority 2016, published 2019)", "origin": "cited, not measured here", "key": {"[1]": {"details": "cited from earlier work"}, "[2]": {"details": "cited from earlier work", "remark": "listed apart in the source"}, "[3]": {"details": "cited from earlier work; for plasma elimination half-life: healthy young volunteers, single dose"}, "[4]": {"details": "cited from earlier work", "remark": "listed apart in the source"}, "[5]": {"details": "cited from earlier work; for Cmax (without correction for Cmin): 14 days of administration"}, "[6]": {"details": "three-month efficacy study, insomnia; cited from earlier work"}, "[7]": {"details": "patients with a history of drug abuse; cited from earlier work"}, "[8]": {"details": "dose range 200-400 mg three times daily"}}, "note": "Where a name gives a salt, the structure may show the parent alone. Read-outs that look alike come from different tables or passages of the source.", "data": [{"smiles": "CCOC(=O)Nc1ccc(NCc2ccc(F)cc2)cc1N", "note": "[retigabine, N-[2-amino-4-(4-fluorobenzylamino)-phenyl] carbamic acid ethyl ester]", "values": [{"measurement": "between-subject variability", "setting": "[1]; [8]", "result": "35-50%"}, {"measurement": "linearity of pharmacokinetics", "setting": "[1]; [8]", "result": "linear"}, {"measurement": "elimination half-lives (t/2)", "setting": "[1]; in vivo", "result": "7 to 11", "unit": "h"}, {"measurement": "median plasma half-life", "setting": "[1]; in vivo", "result": "6 to 8", "unit": "h"}, {"measurement": "Absolute oral bioavailability", "setting": "[1]; relative to an intravenous dose", "result": "approximately 60%"}]}, {"smiles": "OC(c1ccccc1)(c1ccccc1)C1CCCCN1", "note": "(stereo not drawn) [pipradrol]", "values": [{"measurement": "effects of high doses", "setting": "[2]", "result": "uncoordinated activity and ataxia, followed by tremors and clonic convulsions"}]}, {"smiles": "CCOC(=O)Nc1ccc(NCc2ccc(F)cc2)nc1N", "note": "[flupirtine maleate]", "values": [{"measurement": "Cmax", "setting": "[3]; rectal, flupirtine maleate 150 mg", "result": "about 0.89 mg/L"}, {"measurement": "water solubility", "setting": "[4]; listed as maleate salt", "result": "water soluble"}]}, {"smiles": "CC(=O)[C@H]1CC[C@H]2[C@@H]3CC[C@H]4C[C@](C)(O)CC[C@]4(C)[C@H]3CC[C@]12C", "note": "[ganaxolone]", "values": [{"measurement": "Cmin", "setting": "[5]; 50 mg group", "result": 2.34, "unit": "ng/mL"}, {"measurement": "Cmin", "setting": "[5]; 200 mg group", "result": 23.79, "unit": "ng/mL"}, {"measurement": "Cmin", "setting": "[5]; 500 mg group", "result": 56.71, "unit": "ng/mL"}, {"measurement": "Cmax (without correction for Cmin)", "setting": "[5]; 50 mg group", "result": 32, "unit": "ng/mL"}, {"measurement": "Cmax (without correction for Cmin)", "setting": "[5]; 200 mg group", "result": 106, "unit": "ng/mL"}, {"measurement": "Cmax (without correction for Cmin)", "setting": "[5]; 500 mg group", "result": 376, "unit": "ng/mL"}, {"measurement": "AUC and Cmax with increasing dose", "setting": "[5]; in vivo", "result": "linear and proportional increase"}, {"measurement": "half-life", "setting": "[5]; in vivo", "result": "about 20 hours"}, {"measurement": "Cmax", "setting": "[5]; single 900 mg dose", "result": "293 ± 63.8", "unit": "ng/mL"}]}, {"smiles": "Oc1noc2c1CCNC2", "note": "[gaboxadol, 4,5,6,7-tetrahydroisoxazolo [5,4-c]pyridine-3-ol]", "values": [{"measurement": "effects in sleep onset and sleep maintenance", "setting": "[6]", "result": "failed to show significant effects in sleep onset and sleep maintenance"}, {"measurement": "psychiatric adverse events", "setting": "[7]", "result": "steep increase in psychiatric adverse events"}]}, {"smiles": "CCOC(=O)Nc1ccc(NCc2ccc(F)cc2)nc1N", "note": "[flupirtine]", "values": [{"measurement": "time to steady-state plasma concentrations", "setting": "[3]; 75 or 150 mg at 12 hour intervals", "result": 2, "unit": "days"}, {"measurement": "plasma elimination half-life", "setting": "[3]; intravenous", "result": "about 8.5 hours"}, {"measurement": "plasma elimination half-life", "setting": "[3]; oral", "result": "~9.6", "unit": "h"}, {"measurement": "plasma elimination half-life", "setting": "[3]; rectal", "result": "~10.7", "unit": "h"}, {"measurement": "half-life following intravenous administration", "setting": "[3]; intravenous", "result": "about 1.8 hours"}, {"measurement": "relation of plasma concentrations to dose", "setting": "[3]; range of 50 to 300 mg", "result": "linearly related to dose"}, {"measurement": "Bioavailability", "setting": "[3]; rectal dose, in comparison with intravenous flupirtine tartrate 80 mg", "result": "about 72.5%"}, {"measurement": "time until it appears in the plasma", "setting": "[3]; single oral dose 100 mg or 200 mg, healthy volunteers", "result": "15 to 30", "unit": "min"}, {"measurement": "peak plasma concentration (Cmax)", "setting": "[3]; single oral dose 100 mg", "result": "approximately 0.8 mg/L"}, {"measurement": "peak plasma concentration (Cmax)", "setting": "[3]; single oral dose 200 mg", "result": "~2000", "unit": "ng/mL"}, {"measurement": "water solubility", "setting": "[4]", "result": "poorly water soluble"}]}]}
